# Results as given in PubChem BioAssay (NCI).
#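 GI50: concentration for 50% inhibition of growth. TGI is the concentration that stops growth completely.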
# What was measured:
# Assay in all cases: NCI anticancer screen, dose series, 384-well format
# OVCAR-5 ovarian = system: OVCAR-5 ovarian
# NCI-H226 lung = system: NCI-H226 lung
# T-47D breast = system: T-47D breast
# CCRF-CEM leukemia = system: CCRF-CEM leukemia
# SW-620 colon = system: SW-620 colon
# SK-MEL-5 melanoma = system: SK-MEL-5 melanoma
# ACHN renal = system: ACHN renal
# NCI-H460 NSCLC = system: NCI-H460 NSCLC
# MDA-MB-231 breast = system: MDA-MB-231 breast
# SF-539 CNS = system: SF-539 CNS
# UACC-62 melanoma = system: UACC-62 melanoma
# MALME-3M melanoma = system: MALME-3M melanoma
# A549 NSCLC = system: A549 NSCLC
# K-562 leukemia = system: K-562 leukemia
# MDA-MB-435 melanoma = system: MDA-MB-435 melanoma
# M14 melanoma = system: M14 melanoma
# NCI-H522 lung = system: NCI-H522 lung
# HT29 colon = system: HT29 colon
# MOLT-4 leukemia = system: MOLT-4 leukemia
# OVCAR-3 ovarian = system: OVCAR-3 ovarian
# UACC-257 melanoma = system: UACC-257 melanoma
# EKVX NSCLC = system: EKVX NSCLC
# UO-31 renal = system: UO-31 renal
# KM12 colon = system: KM12 colon
# BT-549 breast = system: BT-549 breast
# 786-0 renal = system: 786-0 renal
# OVCAR-8 ovarian = system: OVCAR-8 ovarian
# DU-145 prostate = system: DU-145 prostate
# A498 renal = system: A498 renal
# SK-OV-3 ovarian = system: SK-OV-3 ovarian
# SN12C renal = system: SN12C renal
# COLO 205 colon = system: COLO 205 colon
# HCC-2998 colon = system: HCC-2998 colon
# HOP-62 NSCLC = system: HOP-62 NSCLC
# IGROV1 ovarian = system: IGROV1 ovarian
# SK-MEL-28 melanoma = system: SK-MEL-28 melanoma
# NCI-H322M lung = system: NCI-H322M lung
# U251 glioblastoma = system: U251 glioblastoma
# HS 578T breast = system: HS 578T breast
# HL-60(TB) leukemia = system: HL-60(TB) leukemia
# SF-295 CNS = system: SF-295 CNS
# CAKI-1 renal = system: CAKI-1 renal
# LOX IMVI melanoma = system: LOX IMVI melanoma
# HCT-116 colon = system: HCT-116 colon
# HOP-92 NSCLC = system: HOP-92 NSCLC
# OVCAR-4 ovarian = system: OVCAR-4 ovarian
# SNB-75 CNS = system: SNB-75 CNS
# SF-268 CNS = system: SF-268 CNS
# SNB-19 CNS = system: SNB-19 CNS
# NCI/ADR-RES ovarian = system: NCI/ADR-RES ovarian
# PC-3 prostate = system: PC-3 prostate
# RPMI-8226 leukemia = system: RPMI-8226 leukemia
# TK-10 renal = system: TK-10 renal
# HCT-15 colon = system: HCT-15 colon
# MDA-MB-468 breast = system: MDA-MB-468 breast
# RXF 393 renal = system: RXF 393 renal
# NCI-H23 lung = system: NCI-H23 lung
# MCF7 breast = system: MCF7 breast
smiles,measurement,setting,value
COc1ccc(-c2nc(N3CCOCC3)c3sc(CN(C)c4ncc(C(=O)NO)cn4)cc3n2)cn1,GI50,OVCAR-5 ovarian,< 10 nM
same,TGI,OVCAR-5 ovarian,16.9 nM
same,GI50,NCI-H226 lung,< 10 nM
same,TGI,NCI-H226 lung,33 nM
same,GI50,T-47D breast,< 10 nM
same,TGI,T-47D breast,< 10 nM
same,GI50,CCRF-CEM leukemia,< 10 nM
same,TGI,CCRF-CEM leukemia,< 10 nM
same,GI50,SW-620 colon,< 10 nM
same,TGI,SW-620 colon,< 10 nM
same,GI50,SK-MEL-5 melanoma,< 10 nM
same,TGI,SK-MEL-5 melanoma,< 10 nM
same,GI50,ACHN renal,< 10 nM
same,TGI,ACHN renal,13.3 nM
same,GI50,NCI-H460 NSCLC,< 10 nM
same,TGI,NCI-H460 NSCLC,11.7 nM
same,GI50,MDA-MB-231 breast,< 10 nM
same,TGI,MDA-MB-231 breast,< 10 nM
same,GI50,SF-539 CNS,< 10 nM
same,TGI,SF-539 CNS,13.6 nM
same,GI50,UACC-62 melanoma,< 10 nM
same,TGI,UACC-62 melanoma,< 10 nM
same,GI50,MALME-3M melanoma,< 10 nM
same,TGI,MALME-3M melanoma,< 10 nM
same,GI50,A549 NSCLC,< 10 nM
same,TGI,A549 NSCLC,< 10 nM
same,GI50,K-562 leukemia,< 10 nM
same,TGI,K-562 leukemia,< 10 nM
same,GI50,MDA-MB-435 melanoma,< 10 nM
same,TGI,MDA-MB-435 melanoma,10.1 nM
same,GI50,M14 melanoma,< 10 nM
same,TGI,M14 melanoma,< 10 nM
same,GI50,NCI-H522 lung,< 10 nM
same,TGI,NCI-H522 lung,< 10 nM
same,GI50,HT29 colon,< 10 nM
same,TGI,HT29 colon,12.5 nM
same,GI50,MOLT-4 leukemia,< 10 nM
same,TGI,MOLT-4 leukemia,< 10 nM
same,GI50,OVCAR-3 ovarian,< 10 nM
same,TGI,OVCAR-3 ovarian,< 10 nM
same,GI50,UACC-257 melanoma,< 10 nM
same,TGI,UACC-257 melanoma,< 10 nM
same,GI50,EKVX NSCLC,14 nM
same,TGI,EKVX NSCLC,76.5 nM
same,GI50,UO-31 renal,< 10 nM
same,TGI,UO-31 renal,26.9 nM
same,GI50,KM12 colon,< 10 nM
same,TGI,KM12 colon,15.1 nM
same,GI50,BT-549 breast,< 10 nM
same,TGI,BT-549 breast,13.6 nM
same,GI50,786-0 renal,< 10 nM
same,TGI,786-0 renal,28.4 nM
same,GI50,OVCAR-8 ovarian,< 10 nM
same,TGI,OVCAR-8 ovarian,10.1 nM
same,GI50,DU-145 prostate,< 10 nM
same,TGI,DU-145 prostate,< 10 nM
same,GI50,A498 renal,< 10 nM
same,TGI,A498 renal,12.3 nM
same,GI50,SK-OV-3 ovarian,< 10 nM
same,TGI,SK-OV-3 ovarian,< 10 nM
same,GI50,SN12C renal,< 10 nM
same,TGI,SN12C renal,16.3 nM
same,GI50,COLO 205 colon,< 10 nM
same,TGI,COLO 205 colon,11 nM
same,GI50,HCC-2998 colon,< 10 nM
same,TGI,HCC-2998 colon,< 10 nM
same,GI50,HOP-62 NSCLC,< 10 nM
same,TGI,HOP-62 NSCLC,17.4 nM
same,GI50,IGROV1 ovarian,< 10 nM
same,TGI,IGROV1 ovarian,10.6 nM
same,GI50,SK-MEL-28 melanoma,< 10 nM
same,TGI,SK-MEL-28 melanoma,17.9 nM
same,GI50,NCI-H322M lung,< 10 nM
same,TGI,NCI-H322M lung,19.1 nM
same,GI50,U251 glioblastoma,< 10 nM
same,TGI,U251 glioblastoma,< 10 nM
same,GI50,HS 578T breast,< 10 nM
same,TGI,HS 578T breast,16 nM
same,GI50,HL-60(TB) leukemia,< 10 nM
same,TGI,HL-60(TB) leukemia,< 10 nM
same,GI50,SF-295 CNS,< 10 nM
same,TGI,SF-295 CNS,18.9 nM
same,GI50,CAKI-1 renal,< 10 nM
same,TGI,CAKI-1 renal,< 10 nM
same,GI50,LOX IMVI melanoma,< 10 nM
same,TGI,LOX IMVI melanoma,< 10 nM
same,GI50,HCT-116 colon,< 10 nM
same,TGI,HCT-116 colon,< 10 nM
same,GI50,HOP-92 NSCLC,< 10 nM
same,TGI,HOP-92 NSCLC,23.6 nM
same,GI50,OVCAR-4 ovarian,13.9 nM
same,TGI,OVCAR-4 ovarian,40.7 nM
same,GI50,SNB-75 CNS,< 10 nM
same,TGI,SNB-75 CNS,22.6 nM
same,GI50,SF-268 CNS,< 10 nM
same,TGI,SF-268 CNS,< 10 nM
same,GI50,SNB-19 CNS,< 10 nM
same,TGI,SNB-19 CNS,18.7 nM
same,GI50,NCI/ADR-RES ovarian,< 10 nM
same,TGI,NCI/ADR-RES ovarian,12.5 nM
same,GI50,PC-3 prostate,< 10 nM
same,TGI,PC-3 prostate,10.7 nM
same,GI50,RPMI-8226 leukemia,< 10 nM
same,TGI,RPMI-8226 leukemia,< 10 nM
same,GI50,TK-10 renal,11.6 nM
same,TGI,TK-10 renal,28.7 nM
same,GI50,HCT-15 colon,< 10 nM
same,TGI,HCT-15 colon,23.2 nM
same,GI50,MDA-MB-468 breast,< 10 nM
same,TGI,MDA-MB-468 breast,< 10 nM
same,GI50,RXF 393 renal,< 10 nM
same,TGI,RXF 393 renal,< 10 nM
same,GI50,NCI-H23 lung,< 10 nM
same,TGI,NCI-H23 lung,< 10 nM
same,GI50,MCF7 breast,< 10 nM
same,TGI,MCF7 breast,< 10 nM
